Measurements from publication PMC11513923, “Discovery of ZLC491 as a Potent, Selective, and Orally Bioavailable CDK12/13 PROTAC Degrader” (Journal of Medicinal Chemistry, 2024).

Key:
[1] = test system: DDR proteins (BRCA1, RAD51, ATM); assay: Immunoblotting of DDR proteins in MDA-MB-231 cells; format: cell-based, human; details: MDA-MB-231, different doses, 48 h
Experimental: We next evaluated the effect of ZLC491 on the expression of DDR genes regulated by CDK12/13.
(A) Transcription level of DDR genes in MDA-MB-231 cells determined by RT-qPCR upon the treatment with vehicle or ZLC491 at different doses for 12 h, ROR1 was used as a negative control; (B) immunoblotting of DDR proteins in MDA-MB-231 cells after the treatment of ZLC491 at different doses for 48 h; (C) cell antiproliferative activity of ZLC491 in multiple TNBC cells as well as several noncancerous cells. Cells were treated with the compound for 5 days; (D,E) antiproliferative potency of cisplatin or olaparib alone or combined with ZLC491 at different doses in MDA-MB-231 cells for 5 days. Data are plotted using the percentage of absorbance relative to DMSO controls. (F) IC50 values and combination index (CI) in drug combination assay. In this model, CI scores estimate the interaction between the two drugs. If CI < 1, the drugs have a synergistic effect and if CI > 1, the drugs have an antagonistic effect. CI = 1 means the drugs have an additive effect. ^aThe drug combination in the table refers to the starting concentration of the two combined drugs, that would both go through serial dilution when treating cells. […]

CDK12/13 = assay: Immunoblotting of CDK12 and CDK13 in MDA-MB-436 cells; format: cell-based, human; details: increasing concentrations, 15 h
Experimental: To further characterize the compound, we determined the half-degradation concentration (DC50) values of ZLC491 in MDA-MB-231 cells. […] We also treated MDA-MB-231 cells with 1 μM ZLC491 at various time points.
(A) Immunoblotting of CDK12 and CDK13 in MDA-MB-231 cells treated with increasing concentrations of ZLC491 for 15 h (left). Percent remaining CDK12 and CDK13 proteins were plotted for DC50 determination (right). Protein levels were quantified using ImageJ and normalized to corresponding α-tubulin, then plotted using Graphpad Prism 8.0. The data were representative of three independent experiments; (B) immunoblotting of CDK12 and CDK13 proteins in MDA-MB-231 cells treated with ZLC491 for various time points; immunoblotting of CDK12 and CDK13 in HCC38 (C) and MDA-MB-436 (D) cells treated with increasing concentrations of ZLC491 for 15 h. α-Tubulin was used as a loading control. TEXT PRINTED IN THE PICTURE: (A) ZLC491: MDA-MB-231: CDK12 DC50 = 0.032μM; MDA-MB-231: CDK13 DC50 = 0.028μM DOUBTS OF THE COPYIST ABOUT THIS PICTURE: ZLC491, CDK12 DC50: 0.032 read from small print, the digits 3 and 2 are uncertain / ZLC491, CDK13 DC50: 0.028 read from small print, the last digit may be 8, 6 or 3 […]

N#Cc1ccc(N[C@H]2CC[C@H](N(C(=O)NCc3ccccc3)c3ccc(N4CCN(C5CCN(c6cc7c(cc6F)C(=O)N(C6CCC(=O)NC6=O)C7=O)CC5)CC4)cc3)CC2)nc1 (some centres unmarked) [ZLC491, 3-Benzyl-1-((1r,4r)-4-((5-cyanopyridin-2-yl)amino)cyclohexyl)-1-(4-(4-(1-(2-(2,6-dioxopiperidin-3-yl)-6-fluoro-1,3-dioxoisoindolin-5-yl)piperidin-4-yl)piperazin-1-yl)phenyl)urea]
protein levels of DDR-relative proteins (BRCA1, RAD51, ATM) [1]: reduced
depletion of CDK12/13 (CDK12/13): concentration-dependent manner
